Test results published in patent US11377441B2, “Covalent inhibitors of KRAS” (Araxes Pharma LLC, priority 2017, dated 2022).

These compounds were tested against T1, KRAS G12C 1-169, his-tagged protein, GDP-loaded (Homo sapiens, UniProt P01116, G12C) (assay: Biochemical assay: covalent modification of KRAS G12C measured by mass spectrometry (RapidFire/TOF or Q-Exactive)). Conditions: covalent binding to (modification of) KRAS G12C after a ten minute incubation period.
T1 construct: KRAS G12C 1-169, his-tagged protein, GDP-loaded
Format: binding
Method in brief: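 GDP-loaded KRAS G12C 1-169 (his-tagged) at 2 μM or 0.5 μM in 20 mM Hepes, 150 mM NaCl, 1 mM MgCl2, incubated with compound at 100, 30 or 10 μM at room temperature for 10 min, 30 min, 2 h or 24 h, then quenched with formic acid. Intact-protein LC-MS, deconvolved; percent modification from modified versus unmodified protein.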

Row | Compound | Binding %
1 | C=CC(=O)N1C[C@H](C)N(c2nc(N3CC(N(C)C)C3)nc3c(F)c(-c4c(C)ccc5c(N)n[nH]c45)c(Cl)cc23)C[C@H]1C [Compound 22, 1-((2R,5S)-4-(7-(3-amino-6-methyl-1H-indazol-7-yl)-6-chloro-2-(3-(dimethylamino)azetidin-1-yl)-8-fluoroquinazolin-4-yl)-2,5-dimethylpiperazin-1-yl)prop-2-en-1-one] | + (+ indicates binding activity greater than 0% and up to 50%)
2 | C=CC(=O)N1C[C@H](C)N(c2nc(N3CC(N(C)C)C3)nc3c(F)c(-c4c(C)ccc5[nH]nc(Cl)c45)c(Cl)cc23)C[C@H]1C [Compound 23, 1-((2R,5S)-4-(6-chloro-7-(3-chloro-5-methyl-1H-indazol-4-yl)-2-(3-(dimethylamino)azetidin-1-yl)-8-fluoroquinazolin-4-yl)-2,5-dimethylpiperazin-1-yl)prop-2-en-1-one] | +++ (+++ indicates binding activity greater than 80%)
3 | C=CC(=O)N1C[C@H](C)N(c2nc(N3CC(N(C)C)C3)nc3c(F)c(-c4ccc(F)c5[nH]ncc45)c(Cl)cc23)C[C@H]1C [Compound 29, 1-((2R,5S)-4-(6-chloro-2-(3-(dimethylamino)azetidin-1-yl)-8-fluoro-7-(7-fluoro-1H-indazol-4-yl)quinazolin-4-yl)-2,5-dimethylpiperazin-1-yl)prop-2-en-1-one] | + (+ indicates binding activity greater than 0% and up to 50%)
4 | C=CC(=O)N1C[C@H](C)N(c2nc(N3CC(N(C)C)C3)nc3c(F)c(-c4ccc(Cl)c5[nH]ncc45)c(Cl)cc23)C[C@H]1C [Compound 30, 1-((2R,5S)-4-(6-chloro-7-(7-chloro-1H-indazol-4-yl)-2-(3-(dimethylamino)azetidin-1-yl)-8-fluoroquinazolin-4-yl)-2,5-dimethylpiperazin-1-yl)prop-2-en-1-one] | + (+ indicates binding activity greater than 0% and up to 50%)
5 | C=CC(=O)N1C[C@H](C)N(c2nc(N3CC(N(C)C)C3)nc3c(F)c(-c4c(C)ccc5[nH]nc(NC6CCC6)c45)c(Cl)cc23)C[C@H]1C [Compound 36, 1-((2R,5S)-4-(6-chloro-7-(3-(cyclobutylamino)-5-methyl-1H-indazol-4-yl)-2-(3-(dimethylamino)azetidin-1-yl)-8-fluoroquinazolin-4-yl)-2,5-dimethylpiperazin-1-yl)prop-2-en-1-one] | + (+ indicates binding activity greater than 0% and up to 50%)
6 | C=CC(=O)N1C[C@H](C)N(c2nc(N3CC(N(C)C)C3)nc3c(F)c(-c4c(C)ccc5[nH]nc(NC(C)C)c45)c(Cl)cc23)C[C@H]1C [Compound 39, 1-((2R,5S)-4-(6-chloro-2-(3-(dimethylamino)azetidin-1-yl)-8-fluoro-7-(3-(isopropylamino)-5-methyl-1H-indazol-4-yl)quinazolin-4-yl)-2,5-dimethylpiperazin-1-yl)prop-2-en-1-one] | + (+ indicates binding activity greater than 0% and up to 50%)
7 | C=CC(=O)N1C[C@H](C)N(c2nc(N3CC(N(C)C)C3)nc3c(F)c(-c4c(C)ccc5[nH]nc(Br)c45)c(Cl)cc23)C[C@H]1C [Compound 40, 1-((2R,5S)-4-(7-(3-bromo-5-methyl-1H-indazol-4-yl)-6-chloro-2-(3-(dimethylamino)azetidin-1-yl)-8-fluoroquinazolin-4-yl)-2,5-dimethylpiperazin-1-yl)prop-2-en-1-one] | +++ (+++ indicates binding activity greater than 80%)
8 | C=CC(=O)N1[C@H](C)CN(c2nc(N3CC(N(C)C)C3)nc3c(F)c(-c4c(C)ccc5[nH]nc(N)c45)c(Cl)cc23)C[C@@H]1C [Compound 41, 1-((2S,6R)-4-(7-(3-amino-5-methyl-1H-indazol-4-yl)-6-chloro-2-(3-(dimethylamino)azetidin-1-yl)-8-fluoroquinazolin-4-yl)-2,6-dimethylpiperazin-1-yl)prop-2-en-1-one] | +++ (+++ indicates binding activity greater than 80%)
9 | C=CC(=O)N1C[C@H](C)N(c2nc(N3CC(N(C)C)C3)nc3c(F)c(-c4c(C)ccc5[nH]nc(N(C)C)c45)c(Cl)cc23)C[C@H]1C [Compound 42, 1-((2R,5S)-4-(6-chloro-7-(3-(dimethylamino)-5-methyl-1H-indazol-4-yl)-2-(3-(dimethylamino)azetidin-1-yl)-8-fluoroquinazolin-4-yl)-2,5-dimethylpiperazin-1-yl)prop-2-en-1-one] | + (+ indicates binding activity greater than 0% and up to 50%)
10 | C=CC(=O)N1CC2CCC(C1)N2c1nc(N2CC(N(C)C)C2)nc2c(F)c(-c3c(C)ccc4[nH]nc(N)c34)c(Cl)cc12 [Compound 43, 1-((1R,5S)-8-(7-(3-amino-5-methyl-1H-indazol-4-yl)-6-chloro-2-(3-(dimethylamino)azetidin-1-yl)-8-fluoroquinazolin-4-yl)-3,8-diazabicyclo[3.2.1]oc-tan-3-yl)prop-2-en-1-one] | + (+ indicates binding activity greater than 0% and up to 50%)
11 | C=CC(=O)N1C[C@H](C)N(c2nc(N3CC(N(C)C)C3)nc3c(F)c(-c4cccc5ncccc45)c(Cl)cc23)C[C@H]1C [Compound 44, 1-((2R,5S)-4-(6-chloro-2-(3-(dimethylamino)azetidin-1-yl)-8-fluoro-7-(quinolin-5-yl)quinazolin-4-yl)-2,5-dimethylpiperazin-1-yl)prop-2-en-1-one] | ++ (++ indicates binding activity from 50 to 80%)
12 | C=CC(=O)N1C[C@@H](C)N(c2nc(N3CC(N(C)C)C3)nc3c(F)c(-c4c(C)ccc5[nH]nc(N)c45)c(Cl)cc23)[C@@H](C)C1 [Compound 45, 1-((3R,5S)-4-(7-(3-amino-5-methyl-1H-indazol-4-yl)-6-chloro-2-(3-(dimethylamino)azetidin-1-yl)-8-fluoroquinazolin-4-yl)-3,5-dimethylpiperazin-1-yl)prop-2-en-1-one] | +++ (+++ indicates binding activity greater than 80%)
13 | C=CC(=O)N1C[C@H](C)N(c2nc(N3CC(N(C)C)C3)nc3c(F)c(-c4c(C)ccc5[nH]nc(NCC)c45)c(Cl)cc23)C[C@H]1C [Compound 46, 1-((2R,5S)-4-(6-chloro-2-(3-(dimethylamino)azetidin-1-yl)-7-(3-(ethylamino)-5-methyl-1H-indazol-4-yl)-8-fluoroquinazolin-4-yl)-2,5-dimethylpiperazin-1-yl)prop-2-en-1-one] | ++ (++ indicates binding activity from 50 to 80%)
14 | C=CC(=O)N1C2CCC1CN(c1nc(N3CC(N(C)C)C3)nc3c(F)c(-c4c(C)ccc5[nH]nc(N)c45)c(Cl)cc13)C2 [Compound 47, 1-((1R,5S)-3-(7-(3-amino-5-methyl-1H-indazol-4-yl)-6-chloro-2-(3-(dimethylamino)azetidin-1-yl)-8-fluoroquinazolin-4-yl)-3,8-diazabicyclo[3.2.1]oc-tan-8-yl)prop-2-en-1-one] | ++ (++ indicates binding activity from 50 to 80%)
15 | C=CC(=O)N1CCN(c2nc(N3CC(N(C)C)C3)nc3c(F)c(-c4c(C)ccc5[nH]nc(N)c45)c(Cl)cc23)[C@@H](C)C1 [Compound 48, 1-((3S)-4-(7-(3-amino-5-methyl-1H-indazol-4-yl)-6-chloro-2-(3-(dimethylamino)azetidin-1-yl)-8-fluoroquinazolin-4-yl)-3-methylpiperazin-1-yl)prop-2-en-1-one] | +++ (+++ indicates binding activity greater than 80%)
16 | C=CC(=O)N1C[C@H](C)N(c2nc(OCCN3CCCC3)nc3c(F)c(-c4c(C)ccc5[nH]nc(N)c45)c(Cl)cc23)C[C@H]1C [Compound 49, 1-((2R,5S)-4-(7-(3-amino-5-methyl-1H-indazol-4-yl)-6-chloro-8-fluoro-2-(2-(pyrrolidin-1-yl)ethoxy)quinazolin-4-yl)-2,5-dimethylpiperazin-1-yl)prop-2-en-1-one] | +++ (+++ indicates binding activity greater than 80%)
17 | C=CC(=O)N1C[C@H](C)N(c2nc(N3CC(N(C)C)C3)nc3c(F)c(-c4c(C)ccc5onc(N)c45)c(Cl)cc23)C[C@H]1C [Compound 50, 1-((2R,5S)-4-(7-(3-amino-5-methylbenzo[d]isoxazol-4-yl)-6-chloro-2-(3-(dimethylamino)azetidin-1-yl)-8-fluoroquinazolin-4-yl)-2,5-dimethylpiperazin-1-yl)prop-2-en-1-one] | +++ (+++ indicates binding activity greater than 80%)
18 | C=CC(=O)N1C[C@H](C)N(c2nc(N3CC(N(C)C)C3)nc3c(F)c(-c4c(C)ccc5nc(C)[nH]c45)c(Cl)cc23)C[C@H]1C [Compound 52, 1-((2R,5S)-4-(6-chloro-7-(2,6-dimethyl-1H-benzo[d]imidazol-7-yl)-2-(3-(dimethylamino)azetidin-1-yl)-8-fluoroquinazolin-4-yl)-2,5-dimethylpiperazin-1-yl)prop-2-en-1-one] | ++ (++ indicates binding activity from 50 to 80%)
19 | C=CC(=O)N1C[C@H](C)N(c2nc(N3CC(N(C)C)C3)nc3c(F)c(-c4c(C)cnc5[nH]ncc45)c(Cl)cc23)C[C@H]1C [Compound 56, 1-((2R,5S)-4-(6-chloro-2-(3-(dimethylamino)azetidin-1-yl)-8-fluoro-7-(5-methyl-1H-pyrazolo[3,4-b]pyridin-4-yl)quinazolin-4-yl)-2,5-dimethylpiperazin-1-yl)prop-2-en-1-one] | + (+ indicates binding activity greater than 0% and up to 50%)
20 | C=CC(=O)N1C[C@H](C)N(c2nc(N3CC(N(C)C)C3)nc3c(F)c(-c4c(C)ccc5[nH]nc(C6CC6)c45)c(Cl)cc23)C[C@H]1C [Compound 57, 1-((2R,5S)-4-(6-chloro-7-(3-cyclopropyl-5-methyl-1H-indazol-4-yl)-2-(3-(dimethylamino)azetidin-1-yl)-8-fluoroquinazolin-4-yl)-2,5-dimethylpiperazin-1-yl)prop-2-en-1-one] | +++ (+++ indicates binding activity greater than 80%)
